Data as given in PubChem BioAssay (NCI).
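Assay format: 96-well plates, 48-hour exposure. GI50 = concentration required for 50% inhibition of growth. TGI denotes the concentration required for complete inhibition of growth.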

Experiments:
Experiment in all cases: NCI tumour cell line growth inhibition, 48 h
NCI-H522 lung = tested on: NCI-H522 lung
SK-MEL-2 melanoma = tested on: SK-MEL-2 melanoma
NCI-H23 lung = tested on: NCI-H23 lung
NCI/ADR-RES ovarian = tested on: NCI/ADR-RES ovarian
OVCAR-8 ovarian = tested on: OVCAR-8 ovarian
SW-620 colon = tested on: SW-620 colon
A549 NSCLC = tested on: A549 NSCLC
EKVX NSCLC = tested on: EKVX NSCLC
ACHN renal = tested on: ACHN renal
U251 CNS = tested on: U251 CNS

Row | Structure (SMILES) | TGI (NCI-H522 lung) [µM] | TGI (SK-MEL-2 melanoma) [µM] | TGI (NCI-H23 lung) [µM] | TGI (NCI/ADR-RES ovarian) [µM] | TGI (OVCAR-8 ovarian) [µM] | TGI (SW-620 colon) [µM] | TGI (A549 NSCLC) [µM] | TGI (EKVX NSCLC) [µM] | TGI (ACHN renal) [µM] | TGI (U251 CNS) [µM] | GI50 (ACHN renal) [µM] | GI50 (NCI-H522 lung) [nM] | GI50 (SK-MEL-2 melanoma) [nM] | GI50 (NCI-H23 lung) [µM] | GI50 (NCI/ADR-RES ovarian) [nM] | GI50 (OVCAR-8 ovarian) [nM] | GI50 (SW-620 colon) [nM] | GI50 (A549 NSCLC) [nM] | GI50 (U251 CNS) [nM] | GI50 (EKVX NSCLC) [nM]
1 | c1ccc(-c2nnc(SCc3c[nH]c4ccccc34)n2-c2ccccc2)cc1 | > 100 | > 100 | > 100 | > 100 | > 100 | > 100 | > 100 | > 100 | > 100 | > 100 |  |  |  |  |  |  |  |  |  | 
2 | O=C(Nc1c(C(=O)NC2CCCCC2)[nH]c(=O)[nH]c1=O)c1ccc(Cl)cc1 | > 100 |  |  |  | > 100 | > 100 | > 100 | > 100 | > 100 |  |  |  |  |  |  |  |  |  |  | 
3 | COC1=CC(=O)c2c(cc(COP(=O)(OCC3OC(n4cc(F)c(=O)[nH]c4=O)CC3O)N(C)CCCCCl)n2C)C1=O (stereo not drawn) | 19.1 | 56.6 | 17.7 | > 40.6 | > 73.3 | > 59.9 | 6.27 | 26 | > 100 | 37.7 |  |  |  |  |  |  |  |  |  | 
4 | C=C1C(=O)O[C@@H]2[C@H]1CCC(C)=C1C=CC(=O)[C@]12C | 6.96 | 79.4 |  |  | 36.1 | 18.4 | 73 | 31.1 | 30 | 54 |  |  |  |  |  |  |  |  |  | 
5 | N=C(N)SCc1cc(Cl)cc(Cl)c1O | 33.4 | 39.6 | 40.4 | 89.3 | 38.3 | 49.4 | 53.9 | 42.8 | 36.4 | 30 |  |  |  |  |  |  |  |  |  | 
6 | Cc1ccc(C2N=C(N)NC3=C2CCOc2c3ccc3ccccc23)cc1 (stereo not drawn) | > 100 | > 100 | > 79.5 | > 60.5 | > 70.5 | > 100 | > 64.6 | > 55.1 | > 73.7 | > 66.9 | 16.6 |  |  |  |  |  |  |  |  | 
7 | O=C(O)C1CCC(=O)N1S(=O)(=O)c1ccccc1 (stereo not drawn) | > 100 | > 100 | > 100 | > 100 | > 100 | > 100 | > 100 | > 100 |  | > 100 |  |  |  |  |  |  |  |  |  | 
8 | COc1ccc(-c2nn(-c3cccc(NC(=O)Nc4ccccc4)c3)cc2-c2ccncc2)cc1Cl | 7.22 | 7.53 | > 100 | 8.26 | 7.18 | 7.36 | 4.99 |  |  | 4.91 |  | 2500 | 3140 | 3.5 | 2810 | 2510 | 2510 | 2110 | 1990 | 
9 | CCOc1ccc(/C(C=O)=C(\Cl)c2ccc(OC)c(OC)c2)cc1 | > 100 | > 100 | > 100 |  | > 100 | > 100 |  | > 100 | > 100 | > 100 |  |  |  |  |  |  |  |  |  | 
10 | O=c1cc(N2CCCC2)[nH]c(=O)n1-c1ccc(F)cc1 | > 100 | > 100 | > 100 | > 100 | > 100 | > 100 | > 100 | > 100 | > 100 | > 100 |  |  |  |  |  |  |  |  |  | 
11 | Clc1ccc(CNc2nc(Cl)c3[nH]cnc3n2)cc1Cl | 34.4 | 77.9 | > 100 | 69.6 | 99.2 |  | > 100 | > 100 | > 100 | > 100 |  |  |  |  |  |  |  |  |  | 
12 | Cc1cc(S(=O)(=O)NC2=NC(c3ccccc3)c3cc(Cl)ccc3N2)c(S)cc1Cl (stereo not drawn) | > 100 |  | > 100 | > 100 | > 100 | > 100 | > 100 | > 100 | > 100 | > 100 |  |  |  |  |  |  |  |  |  | 
13 | Cc1cc2c(C(C)C)c(O)c(O)c(C=NCCO)c2c(O)c1-c1c(C)cc2c(C(C)C)c(O)c(O)c(C=NCCO)c2c1O | 4.78 | 14.6 | 4.16 |  | 21.9 | 16.7 | 2.98 | 7.3 | 12.4 | 2.59 |  |  |  |  |  |  |  |  |  | 
14 | CO/C(=C/C(=O)C(Cl)(Cl)Cl)CC/C(=C\C(=O)C(Cl)(Cl)Cl)OC | 57.5 | 84.1 | 62.7 | > 100 | 56 | > 100 | > 100 | 59.7 | 65.2 | 54.7 |  |  |  |  |  |  |  |  |  | 
15 | CN1C[C@H]2[C@@H](C1=O)[C@H](c1ccccc1)ON2C | > 100 | > 100 | > 100 | > 100 | > 100 | > 100 | > 100 |  | > 100 | > 100 |  |  |  |  |  |  |  |  |  | 
16 | COC(=O)[C@@]1(Cc2ccc(O)cc2)C[C@@H]2Cc3ccccc3N2N1 | > 100 | 92.8 | > 100 | > 100 | > 100 | > 100 | > 100 | > 100 | > 100 | > 100 |  |  |  |  |  |  |  |  |  | 

Row | Structure (SMILES) | TGI (NCI-H522 lung) [µM] | TGI (SK-MEL-2 melanoma) [µM] | TGI (NCI-H23 lung) [µM] | TGI (NCI/ADR-RES ovarian) [µM] | TGI (OVCAR-8 ovarian) [µM] | TGI (SW-620 colon) [µM] | TGI (A549 NSCLC) [µM] | TGI (EKVX NSCLC) [µM] | TGI (ACHN renal) [µM] | TGI (U251 CNS) [µM] | GI50 (ACHN renal) [µM] | GI50 (NCI-H522 lung) [nM] | GI50 (SK-MEL-2 melanoma) [nM] | GI50 (NCI-H23 lung) [µM] | GI50 (NCI/ADR-RES ovarian) [nM] | GI50 (OVCAR-8 ovarian) [nM] | GI50 (SW-620 colon) [nM] | GI50 (A549 NSCLC) [nM] | GI50 (U251 CNS) [nM] | GI50 (EKVX NSCLC) [nM]
17 | COc1c2c(cc3c1OCO3)C13C=CC(OC)CC1N(CC3)C2 (stereo not drawn) | > 100 | > 100 | > 100 | > 100 | > 100 | > 100 | > 100 | > 100 | > 100 | > 100 |  |  |  |  |  |  |  |  |  | 
18 | CC(=O)OCC1=C(C(=O)O)C(c2ccc3c(c2)OCO3)c2cc3c(cc2O1)OCO3 (stereo not drawn) |  |  | > 100 |  | > 100 | > 100 | > 100 | > 100 | > 100 | > 100 |  |  |  |  |  |  |  |  |  | 
19 | O=c1c2ccccc2nc2n1C(c1ccc([N+](=O)[O-])cc1)C2(c1ccccc1)c1ccccc1 (stereo not drawn) | > 100 | > 100 | > 100 | > 100 | > 100 | > 100 | > 100 | > 100 | > 100 | > 100 |  |  |  |  |  |  |  |  |  | 
20 | CCC(=O)NC(Nc1cccc(F)c1)(C(F)(F)F)C(F)(F)F | > 100 | > 100 | > 100 | > 100 | > 100 | > 100 | > 100 | > 100 | > 100 | > 100 |  |  |  |  |  |  |  |  |  | 
21 | NC1(C(=O)O)CCc2ccc(N(CCCl)CCCl)cc2C1 (stereo not drawn) | 74.3 | > 100 | > 100 | > 100 | > 100 | > 100 | > 100 | > 100 |  | > 100 |  |  |  |  |  |  |  |  |  | 
22 | CCCC(N)C(=O)c1ccccc1 (stereo not drawn) | > 100 | > 100 | > 100 |  | > 100 | > 100 | > 100 | > 100 | > 100 | > 100 |  |  |  |  |  |  |  |  |  | 
23 | O=C(Nc1ccc(Sc2ccc(N=Nc3c(O)c(S(=O)(=O)O)cc4cc(S(=O)(=O)O)ccc34)cc2)cc1)c1ccc(N=Nc2c(O)ccc3c(S(=O)(=O)O)cc(S(=O)(=O)O)cc23)cc1 | 40.2 | > 100 | > 100 |  | > 100 | > 100 | > 100 | > 100 | > 100 | > 100 |  |  |  |  |  |  |  |  |  | 
24 | Cc1cc(C)c2c(c1)C1=NCCN1C2(O)c1ccc(Cl)cc1 (stereo not drawn) |  | 34.7 | 33.1 | 30.2 | 30.2 | 29.2 | 35.5 | 33.3 | 29.6 | 32.3 |  |  |  |  |  |  |  |  |  | 
25 | COC(=O)/C=C(/C(=O)OC)c1cc2ccc3c([nH]c4ccccc43)c(C)c-2c1 | 5.83 | 26.8 | 24.7 | > 100 | 25.2 | 27.1 | > 100 | 24.2 | > 100 | 18.1 |  |  |  |  |  |  |  |  |  | 
26 | COc1cc(C(=O)C2C(=O)c3ccccc3C2C2(O)c3ccccc3CC2C(O)c2cc(OC)c(OC)c(OC)c2)cc(OC)c1OC (stereo not drawn) |  | > 100 | > 100 | > 100 | > 100 | > 100 | > 100 | > 100 | > 100 | > 100 |  |  |  |  |  |  |  |  |  | 
27 | N#CCCN(CCC#N)c1ccc(C(N=Nc2ccccc2)=Nc2ccc(Cl)cc2)cc1 | > 100 |  | > 100 | > 100 | > 100 | > 100 | > 100 | > 100 | > 100 | > 100 |  |  |  |  |  |  |  |  |  | 
28 | Fc1ccc(-c2nn3c(-c4cc(C(F)(F)F)cc(C(F)(F)F)c4)nnc3s2)cc1 | > 50 | 4.75 | > 50 | > 50 | > 50 | > 50 |  | > 50 |  |  |  | 2300 | 1640 | 3.05 | 2950 | 1770 | > 50000 |  |  | 1750
29 | N#CC(Nc1cccc(C(F)(F)F)c1)c1ccccc1C(F)(F)F (stereo not drawn) | 17.1 | 17.9 | 27.6 |  | 33 | 11 | 29.3 | 28.7 | 27.6 | 30.5 |  |  |  |  |  |  |  |  |  | 
30 | Cc1c(-c2ccccc2)c(C#N)c2nnn(C3CCCCC3)c(=O)n12 | > 100 | > 100 | > 100 | > 100 | > 100 | > 100 | > 100 | > 100 | > 100 | > 100 |  |  |  |  |  |  |  |  |  | 
31 | CC(C)(C)OC(=O)NCCC(=O)NC1(c2cc3ccccc3s2)CCCCC1 | 26.2 | 44.9 | 31.4 | 41.6 | 35.8 | 41.1 | 38.6 | 50.6 | 61.4 | 37.7 |  |  |  |  |  |  |  |  |  | 
32 | CCCCCCCNC(P(=O)(O)O)P(=O)(O)O | > 100 | > 100 | > 100 | > 100 | > 100 | > 100 | > 100 | > 100 | > 100 | > 100 |  |  |  |  |  |  |  |  |  | 
